Legend:
Assay type in all cases: in vivo
[1] = tested on: redroot pigweed (Amaranthus retroflexus, AMARE); assay: Pre-emerge test, greenhouse herbicide activity screening; details: pre-emerge, rated 14 days after application, 0 = no damage, 100 = complete death
In short: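 Compounds in acetone were track-sprayed at 187 l/ha, 15–1000 g ai/ha, onto sandy loam pots. Pre-emerge seeds were sown one day before spraying, with surface watering afterwards. Post-emerge plants were at the 2–3 leaf stage and sprayed with 0.25% v/v non-ionic surfactant. Injury was rated 0–100 at 14 days.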

[2] = tested on: barnyardgrass (Echinochloa crus-galli, ECHCG); assay: as above; details: pre-emerge, rated 14 days after application, 0 = no damage, 100 = complete death
In short: (§1)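 Sandy loam pots; pre-emerge: sown 1 d pre-spray, surface-watered after, then bottom-watered. Post-emerge: sown 8–21 d before, 2–3 leaf stage, + 0.25% v/v NIS, bottom-watered. Acetone, 187 l/ha track spray, 15–1000 g ai/ha. 0–100 injury score, day 14.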

[3] = tested on: common ragweed (Ambrosia artemisizfolia L., AMBEL); assay: as above; details: pre-emerge, rated 14 days after application, 0 = no damage, 100 = complete death
In short: as §1

[4] = tested on: green foxtail (Setaria viridis, SETVI); assay: as above; details: pre-emerge, rated 14 days after application, 0 = no damage, 100 = complete death
In short: as §1

[5] = tested on: ivyleaf morningglory (Ipomoea hederacea, IPOHE); assay: as above; details: pre-emerge, rated 14 days after application, 0 = no damage, 100 = complete death
In short: as §1

[6] = tested on: johnsongrass (Sorghum halepense, SORHA); assay: as above; details: pre-emerge, rated 14 days after application, 0 = no damage, 100 = complete death
In short: as §1

[7] = tested on: lambsquarters (Chenopodium album, CHEAL); assay: as above; details: pre-emerge, rated 14 days after application, 0 = no damage, 100 = complete death
In short: as §1

[8] = tested on: large crabgrass (Digitaria sanguinalis, DIGSA); assay: as above; details: pre-emerge, rated 14 days after application, 0 = no damage, 100 = complete death
In short: as §1

[9] = tested on: sicklepod (Cassia obtusifolia, CASOB); assay: as above; details: pre-emerge, rated 14 days after application, 0 = no damage, 100 = complete death
In short: as §1

[10] = tested on: velvetleaf (Abutilon theophrasti, ABUTH); assay: as above; details: pre-emerge, rated 14 days after application, 0 = no damage, 100 = complete death
In short: as §1

[11] = tested on: field corn (Zea mays L., var. Dekalb 535, CORN); assay: Pre-emerge test, crop safety; details: pre-emerge, rated 14 days after application, 0 = no damage, 100 = complete death
In short: (§2)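 Plants grown in 10 cm pots of sandy loam mix received acetone-dissolved compounds through a moving flat-fan nozzle. Doses ranged from 15 to 1000 g ai/ha. Pre-emerge pots were seeded one day earlier, post-emerge pots 8–21 days earlier. Fourteen days on, each pot was graded 0–100 for damage.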

[12] = tested on: upland rice (Oryza sp., var. Tebonnet, RICE); assay: Pre-emerge test, crop safety; details: pre-emerge, rated 14 days after application, 0 = no damage, 100 = complete death
In short: as §2

[13] = tested on: barnyardgrass (Echinochloa crus-galli, ECHCG); assay: Post-emerge test, greenhouse herbicide activity screening; details: phytotoxicity rating 0-100 (0 no damage, 100 complete death), 14 days after application
In short: (§3)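 Each test used a mechanized track sprayer delivering 187 l/ha of acetone solution at 15–1000 g ai/ha. Post-emerge foliage at 2–3 leaves was treated with added 0.25% v/v non-ionic surfactant and bottom-watered only. Injury was assessed on day 14, where 100 means total kill.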

[14] = tested on: common ragweed (Ambrosia artemisizfolia L., AMBEL); assay: as above; details: phytotoxicity rating 0-100 (0 no damage, 100 complete death), 14 days after application
In short: as §3

[15] = tested on: green foxtail (Setaria viridis, SETVI); assay: as above; details: phytotoxicity rating 0-100 (0 no damage, 100 complete death), 14 days after application
In short: as §3

[16] = tested on: ivyleaf morningglory (Ipomoea hederacea, IPOHE); assay: as above; details: phytotoxicity rating 0-100 (0 no damage, 100 complete death), 14 days after application
In short: as §3

[17] = tested on: johnsongrass (Sorghum halepense, SORHA); assay: as above; details: phytotoxicity rating 0-100 (0 no damage, 100 complete death), 14 days after application
In short: as §3

[18] = tested on: lambsquarters (Chenopodium album, CHEAL); assay: as above; details: phytotoxicity rating 0-100 (0 no damage, 100 complete death), 14 days after application
In short: as §3

[19] = tested on: large crabgrass (Digitaria sanguinalis, DIGSA); assay: as above; details: phytotoxicity rating 0-100 (0 no damage, 100 complete death), 14 days after application
In short: as §3

[20] = tested on: redroot pigweed (Amaranthus retroflexus, AMARE); assay: as above; details: phytotoxicity rating 0-100 (0 no damage, 100 complete death), 14 days after application
In short: as §3

[21] = tested on: sicklepod (Cassia obtusifolia, CASOB); assay: as above; details: phytotoxicity rating 0-100 (0 no damage, 100 complete death), 14 days after application
In short: as §3

[22] = tested on: velvetleaf (Abutilon theophrasti, ABUTH); assay: as above; details: phytotoxicity rating 0-100 (0 no damage, 100 complete death), 14 days after application
In short: as §3

[23] = tested on: field corn (Zea mays L., var. Dekalb 535, CORN); assay: Post-emerge test, crop safety; details: phytotoxicity rating 0-100 (0 no damage, 100 complete death), 14 days after application
In short: as §1

[24] = tested on: upland rice (Oryza sp., var. Tebonnet, RICE); assay: Post-emerge test, crop safety; details: phytotoxicity rating 0-100 (0 no damage, 100 complete death), 14 days after application
In short: as §1

**Q.** Which results are given for COc1c(Cl)cc(F)c(-n2c(=O)cc(C(F)(F)F)n(N)c2=O)c1N [Compound 1-13]?
**A.** Pre-emerge Herbicidal Activity AMARE (phytotoxicity rating, scale 0-100) ([1]; 63 g ai/ha): 100; Pre-emerge Herbicidal Activity AMARE (phytotoxicity rating, scale 0-100) ([1]; 250 g ai/ha): 100; Pre-emerge Herbicidal Activity ECHCG (phytotoxicity rating, scale 0-100) ([2]; 63 g ai/ha): 90; Pre-emerge Herbicidal Activity ECHCG (phytotoxicity rating, scale 0-100) ([2]; 250 g ai/ha): 100; Pre-emerge Herbicidal Activity AMBEL (phytotoxicity rating, scale 0-100) ([3]; 63 g ai/ha): 100; Pre-emerge Herbicidal Activity AMBEL (phytotoxicity rating, scale 0-100) ([3]; 250 g ai/ha): 100; Pre-emerge Herbicidal Activity SETVI (phytotoxicity rating, scale 0-100) ([4]; 63 g ai/ha): 100; Pre-emerge Herbicidal Activity SETVI (phytotoxicity rating, scale 0-100) ([4]; 250 g ai/ha): 100; Pre-emerge Herbicidal Activity IPOHE (phytotoxicity rating, scale 0-100) ([5]; 63 g ai/ha): 100; Pre-emerge Herbicidal Activity IPOHE (phytotoxicity rating, scale 0-100) ([5]; 250 g ai/ha): 100; Pre-emerge Herbicidal Activity SORHA (phytotoxicity rating, scale 0-100) ([6]; 63 g ai/ha): 95; Pre-emerge Herbicidal Activity SORHA (phytotoxicity rating, scale 0-100) ([6]; 250 g ai/ha): 100; Pre-emerge Herbicidal Activity CHEAL (phytotoxicity rating, scale 0-100) ([7]; 63 g ai/ha): 100; Pre-emerge Herbicidal Activity CHEAL (phytotoxicity rating, scale 0-100) ([7]; 250 g ai/ha): 100; Pre-emerge Herbicidal Activity DIGSA (phytotoxicity rating, scale 0-100) ([8]; 63 g ai/ha): 100; Pre-emerge Herbicidal Activity DIGSA (phytotoxicity rating, scale 0-100) ([8]; 250 g ai/ha): 100; Pre-emerge Herbicidal Activity CASOB (phytotoxicity rating, scale 0-100) ([9]; 63 g ai/ha): 80; Pre-emerge Herbicidal Activity CASOB (phytotoxicity rating, scale 0-100) ([9]; 250 g ai/ha): 100; Pre-emerge Herbicidal Activity ABUTH (phytotoxicity rating, scale 0-100) ([10]; 63 g ai/ha): 100; Pre-emerge Herbicidal Activity ABUTH (phytotoxicity rating, scale 0-100) ([10]; 250 g ai/ha): 100; Pre-emerge crop damage CORN (phytotoxicity rating, scale 0-100) ([11]; 63 g ai/ha): 60; Pre-emerge crop damage CORN (phytotoxicity rating, scale 0-100) ([11]; 250 g ai/ha): 95; Pre-emerge crop damage RICE (phytotoxicity rating, scale 0-100) ([12]; 63 g ai/ha): 95; Pre-emerge crop damage RICE (phytotoxicity rating, scale 0-100) ([12]; 250 g ai/ha): 100; Post-emerge Herbicidal Activity ECHCG ([13]; 63 g ai/ha): 30; Post-emerge Herbicidal Activity ECHCG ([13]; 250 g ai/ha): 70; Post-emerge Herbicidal Activity AMBEL ([14]; 63 g ai/ha): 70; Post-emerge Herbicidal Activity AMBEL ([14]; 250 g ai/ha): 85; Post-emerge Herbicidal Activity SETVI ([15]; 63 g ai/ha): 30; Post-emerge Herbicidal Activity SETVI ([15]; 250 g ai/ha): 90; Post-emerge Herbicidal Activity IPOHE ([16]; 63 g ai/ha): 100; Post-emerge Herbicidal Activity IPOHE ([16]; 250 g ai/ha): 100; Post-emerge Herbicidal Activity SORHA ([17]; 63 g ai/ha): 10; Post-emerge Herbicidal Activity SORHA ([17]; 250 g ai/ha): 90; Post-emerge Herbicidal Activity CHEAL ([18]; 63 g ai/ha): 100; Post-emerge Herbicidal Activity CHEAL ([18]; 250 g ai/ha): 100; Post-emerge Herbicidal Activity DIGSA ([19]; 63 g ai/ha): 0; Post-emerge Herbicidal Activity DIGSA ([19]; 250 g ai/ha): 75; Post-emerge Herbicidal Activity AMARE ([20]; 63 g ai/ha): 100; Post-emerge Herbicidal Activity AMARE ([20]; 250 g ai/ha): 100; Post-emerge Herbicidal Activity CASOB ([21]; 63 g ai/ha): 30; Post-emerge Herbicidal Activity CASOB ([21]; 250 g ai/ha): 70; Post-emerge Herbicidal Activity ABUTH ([22]; 63 g ai/ha): 100; Post-emerge Herbicidal Activity ABUTH ([22]; 250 g ai/ha): 100; Post-emerge Herbicidal Activity CORN (crop damage) ([23]; 63 g ai/ha): 20; Post-emerge Herbicidal Activity CORN (crop damage) ([23]; 250 g ai/ha): 80; Post-emerge Herbicidal Activity RICE (crop damage) ([24]; 63 g ai/ha): 30; Post-emerge Herbicidal Activity RICE (crop damage) ([24]; 250 g ai/ha): 80

From patent publication US6355799B1, “Substituted benzene compounds, process for their preparation, and herbicidal and defoliant compositions containing them” (ISK Americas Incorporated, priority 1997, dated 2002)
